Results: patent publication US20230265151A1, “GIP/GLP1 CO-AGONIST COMPOUNDS” (priority 2020, published 2023)
Like-named read-outs stand apart in the source and are kept apart here.

Assays:
[1] = biological target: T1, human Gcg receptor (hGcgR) (Homo sapiens, UniProt P47871); experiment: [125I]-Glucagon binding, SPA with membranes of HEK293 cells expressing hGcgR; conditions: human GcgR; geometric mean (SEM, n); read-out: Binding Affinity Ki, nM (SEM, n) hGCGR
T1 construct: expressed in transfected cells; crude membranes

hGIPR = biological target: T2, hGIPR (Homo sapiens, UniProt P48546); experiment: Functional cAMP formation (HTRF) in HEK-293 clonal cells expressing hGIPR, 0.1% bovine casein, without or with 1.0% human serum albumin; assay type: cell-based; conditions: for Emax: 37° C., read-out: hGIPR Emax, % ± SEM; for EC50: cAMP, incubated at 37° C., 0.1% bovine casein (no human serum albumin), geometric mean, read-out: hGIPR EC50, nM (SEM, n)
T2 construct: expressed in transfected cells
T2 sequence (P48546 22-466): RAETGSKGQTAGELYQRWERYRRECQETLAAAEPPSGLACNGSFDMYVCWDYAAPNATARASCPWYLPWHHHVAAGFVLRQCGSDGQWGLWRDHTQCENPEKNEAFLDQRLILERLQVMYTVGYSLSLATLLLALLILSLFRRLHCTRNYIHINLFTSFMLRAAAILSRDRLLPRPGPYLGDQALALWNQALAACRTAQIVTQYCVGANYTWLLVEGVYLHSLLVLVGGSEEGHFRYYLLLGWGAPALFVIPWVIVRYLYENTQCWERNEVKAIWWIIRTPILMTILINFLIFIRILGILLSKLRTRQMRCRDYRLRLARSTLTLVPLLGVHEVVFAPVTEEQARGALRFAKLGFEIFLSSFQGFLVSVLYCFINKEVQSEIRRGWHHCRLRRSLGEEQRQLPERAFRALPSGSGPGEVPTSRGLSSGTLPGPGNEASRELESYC
Outline: (§1)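 Cells were stimulated with peptide for 30 min at 37° C, then intracellular cAMP was measured by competitive HTRF (665/620 nm ratio) and converted to nM using a cAMP standard curve. Relative EC50 and Emax came from four-parameter logistic fits of percent maximal response against peptide concentration.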

hGCGR = biological target: T3, hGCGR (Homo sapiens, UniProt P47871); experiment: Functional cAMP formation (HTRF) in HEK-293 clonal cells expressing hGCGR, 0.1% bovine casein, without or with 1.0% human serum albumin; assay type: cell-based; conditions: geometric mean, read-out: hGCGR EC50, nM (SEM, n)
T3 construct: expressed in transfected cells
Outline: as §1

hGLP-1R = hGLP-1R (Homo sapiens, UniProt P43220); experiment: Functional cAMP formation (HTRF) in HEK-293 clonal cells expressing hGLP-1R, 0.1% bovine casein, without or with 1.0% human serum albumin; assay type: cell-based; parameters: expressed in transfected cells; conditions: for Emax: read-out: hGLP-1R Emax, % ± SEM; for EC50: geometric mean, read-out: hGLP-1R EC50, nM (SEM, n)
Outline: as §1

[2] = HEK293, 0.1% bovine casein and 1.0% human serum albumin, percent of maximal response to GIP(1-42)NH2
[3] = HEK293, percent of maximal response to GIP(1-42)NH2, 0.1% bovine casein, arithmetic mean
[4] = 0.1% bovine casein and 1.0% human serum albumin, 37° C.
[5] = cAMP, incubated at 37° C., 0.1% bovine casein (no human serum albumin)
[6] = HEK293, 0.1% bovine casein and 1.0% human serum albumin, 37° C., percent of maximal response to GLP-1(7-36)NH2
[7] = HEK293, percent of maximal response to GLP-1(7-36)NH2, 37° C., 0.1% bovine casein, arithmetic mean

T3 sequence (P47871 26-477): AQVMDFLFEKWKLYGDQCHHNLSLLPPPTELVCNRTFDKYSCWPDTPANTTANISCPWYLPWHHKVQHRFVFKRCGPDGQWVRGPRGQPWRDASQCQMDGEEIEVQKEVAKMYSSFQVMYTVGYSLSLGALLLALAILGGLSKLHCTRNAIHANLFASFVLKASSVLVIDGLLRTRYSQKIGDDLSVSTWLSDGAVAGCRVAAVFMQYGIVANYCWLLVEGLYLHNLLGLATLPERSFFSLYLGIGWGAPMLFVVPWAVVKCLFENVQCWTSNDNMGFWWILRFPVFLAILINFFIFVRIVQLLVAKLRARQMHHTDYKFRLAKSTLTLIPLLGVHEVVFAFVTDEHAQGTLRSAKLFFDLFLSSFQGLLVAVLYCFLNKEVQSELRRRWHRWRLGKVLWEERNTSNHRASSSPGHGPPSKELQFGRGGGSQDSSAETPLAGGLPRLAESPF
T1 sequence (P47871 26-477): as above
Sequence of hGLP-1R (P43220 24-463): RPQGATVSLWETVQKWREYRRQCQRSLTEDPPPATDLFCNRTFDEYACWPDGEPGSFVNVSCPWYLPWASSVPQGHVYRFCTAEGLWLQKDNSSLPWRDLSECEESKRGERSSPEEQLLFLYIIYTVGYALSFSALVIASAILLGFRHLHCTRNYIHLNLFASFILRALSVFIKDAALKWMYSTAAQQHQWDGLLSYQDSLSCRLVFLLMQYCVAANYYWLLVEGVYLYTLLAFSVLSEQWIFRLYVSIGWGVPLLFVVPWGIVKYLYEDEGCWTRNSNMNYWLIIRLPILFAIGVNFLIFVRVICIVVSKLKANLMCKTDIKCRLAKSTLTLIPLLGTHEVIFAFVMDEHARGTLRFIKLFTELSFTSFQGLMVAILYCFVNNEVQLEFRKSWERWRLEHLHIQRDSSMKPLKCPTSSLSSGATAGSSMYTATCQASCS

| Compound | Ki [1] [nM] | Emax (hGIPR; [2]) [%] | Emax (hGIPR; [3]) [%] | EC50 (hGIPR) [nM] | EC50 (hGCGR; [4]) [nM] | EC50 (hGCGR; [5]) [nM] | Emax (hGLP-1R; [6]) [%] | Emax (hGLP-1R; [7]) [%] | EC50 (hGLP-1R; [5]) [nM] | EC50 (hGLP-1R; [4]) [nM] |
| --- | --- | --- | --- | --- | --- | --- | --- | --- | --- | --- |
| CC[C@H](C)[C@H](NC(=O)[C@H](CC(C)C)NC(=O)[C@](C)(Cc1ccccc1)NC(=O)[C@@H](CCC(=O)O)NC(=O)[C@@H](NC(=O)[C@H](Cc1ccccc1)NC(=O)[C@H](CCC(=O)O)NC(=O)C(C)(C)NC(=O)[C@H](CCC(N)=O)NC(=O)[C@H](C)NC(=O)[C@H](CCCCNC(=O)COCCOCCNC(=O)COCCOCCNC(=O)CC[C@H](NC(=O)CCCCCCCCCCCCC(=O)O)C(=O)O)NC(=O)[C@H](CCCN)NC(=O)[C@H](CC(=O)O)NC(=O)[C@H](CC(C)C)NC(=O)[C@](C)(CC(C)C)NC(=O)[C@@H](NC(=O)[C@H](CO)NC(=O)[C@H](Cc1ccncc1)NC(=O)[C@H](CC(=O)O)NC(=O)[C@H](CO)NC(=O)[C@@H](NC(=O)[C@](C)(Cc1ccccc1)NC(=O)[C@@H](NC(=O)CNC(=O)[C@H](CCC(=O)O)NC(=O)C(C)(C)NC(=O)[C@@H](N)Cc1ccc(O)cc1)[C@@H](C)O)[C@@H](C)O)[C@@H](C)CC)[C@@H](C)CC)C(=O)N[C@@H](CCC(=O)O)C(=O)NCC(=O)NCC(=O)N[C@@H](CCCCNC(=O)COCCOCCNC(=O)COCCOCCNC(=O)CC[C@H](NC(=O)CCCCCCCCCCCCC(=O)O)C(=O)O)C(=O)N[C@@H](CO)C(=O)N[C@@H](CO)C(=O)NCC(=O)N[C@@H](C)C(=O)N1CCC[C@H]1C(=O)N1CCC[C@H]1C(=O)N1CCC[C@H]1C(=O)N[C@@H](CO)C(N)=O [Example 48] | > 966 | 90.8 | 91.6 ± 3.38 | 0.0182 | > 9950 | > 9950 | 111 | 87.8 ± 6.25 | 1 | – |
| CC[C@H](C)[C@H](NC(=O)[C@H](CC(C)C)NC(=O)[C@](C)(Cc1ccc(O)cc1)NC(=O)[C@@H](CCC(=O)O)NC(=O)[C@@H](NC(=O)[C@H](Cc1cccc(Cl)c1)NC(=O)[C@H](CCC(=O)O)NC(=O)C(C)(C)NC(=O)[C@H](CCC(N)=O)NC(=O)[C@H](C)NC(=O)[C@H](CCCCNC(=O)COCCOCCNC(=O)COCCOCCNC(=O)CC[C@H](NC(=O)CCCCCCCCCCCCC(=O)O)C(=O)O)NC(=O)[C@H](CCCN)NC(=O)[C@H](CC(=O)O)NC(=O)[C@H](CC(C)C)NC(=O)[C@](C)(CC(C)C)NC(=O)[C@@H](NC(=O)[C@H](CO)NC(=O)[C@H](Cc1ccncc1)NC(=O)[C@H](CC(=O)O)NC(=O)[C@H](CO)NC(=O)[C@@H](NC(=O)[C@](C)(Cc1ccccc1F)NC(=O)[C@@H](NC(=O)CNC(=O)[C@H](CCC(=O)O)NC(=O)C(C)(C)NC(=O)[C@@H](N)Cc1ccc(O)cc1)[C@@H](C)O)[C@@H](C)O)[C@@H](C)CC)[C@@H](C)CC)C(=O)N[C@@H](CCC(=O)O)C(=O)NCC(=O)NCC(=O)N[C@@H](CCCCNC(=O)COCCOCCNC(=O)COCCOCCNC(=O)CC[C@H](NC(=O)CCCCCCCCCCCCC(=O)O)C(=O)O)C(=O)N[C@@H](CO)C(=O)N[C@@H](CO)C(=O)NCC(=O)N[C@@H](C)C(=O)N1CCC[C@H]1C(=O)N1CCC[C@H]1C(=O)N1CCC[C@H]1C(=O)N[C@@H](CO)C(N)=O [Example 62] | > 4780 | 94.3 ± 0.785 | 96.1 ± 2.64 | 0.0211 | > 9950 | > 9950 | 85.8 ± 3.31 | 99.4 ± 5.83 | – | – |
| CC[C@H](C)[C@H](NC(=O)[C@H](CCCN)NC(=O)[C@H](CC(=O)O)NC(=O)[C@H](CC(C)C)NC(=O)[C@](C)(CC(C)C)NC(=O)[C@@H](NC(=O)[C@H](CO)NC(=O)[C@H](Cc1ccncc1)NC(=O)[C@H](CC(=O)O)NC(=O)[C@H](CO)NC(=O)[C@@H](NC(=O)[C@](C)(Cc1ccccc1F)NC(=O)[C@@H](NC(=O)CNC(=O)[C@H](CCC(=O)O)NC(=O)C(C)(C)NC(=O)[C@@H](N)Cc1ccc(O)cc1)[C@@H](C)O)[C@@H](C)O)[C@@H](C)CC)C(=O)N[C@@H](C)C(=O)N[C@@H](CCC(N)=O)C(=O)NC(C)(C)C(=O)N[C@@H](CCC(=O)O)C(=O)N[C@@H](Cc1ccccc1)C(=O)N[C@H](C(=O)N[C@@H](CCCCNC(=O)COCCOCCNC(=O)COCCOCCNC(=O)CC[C@H](NC(=O)CCCCCCCCCCCCC(=O)O)C(=O)O)C(=O)N[C@@](C)(Cc1ccc(O)cc1)C(=O)N[C@@H](CC(C)C)C(=O)N[C@H](C(=O)N[C@@H](CCCCNC(=O)COCCOCCNC(=O)COCCOCCNC(=O)CC[C@H](NC(=O)CCCCCCCCCCCCC(=O)O)C(=O)O)C(=O)NCC(=O)NCC(=O)N1CCC[C@H]1C(=O)N[C@@H](CO)C(=O)N[C@@H](CO)C(=O)NCC(=O)N[C@@H](C)C(=O)N1CCC[C@H]1C(=O)N1CCC[C@H]1C(=O)N1CCC[C@H]1C(=O)N[C@@H](CO)C(N)=O)[C@@H](C)CC)[C@@H](C)CC [Example 70] | 151 | 89.9 ± 0.987 | 89.1 ± 2.3 | 0.0182 | > 9950 | > 9950 | – | 100 ± 3.11 | – | 27 |
| CC[C@H](C)[C@H](NC(=O)[C@H](CCCN)NC(=O)[C@H](CC(=O)O)NC(=O)[C@H](CC(C)C)NC(=O)[C@](C)(CC(C)C)NC(=O)[C@@H](NC(=O)C(C)(C)NC(=O)[C@H](Cc1ccncc1)NC(=O)[C@H](CC(=O)O)NC(=O)[C@H](CO)NC(=O)[C@@H](NC(=O)[C@](C)(Cc1ccccc1F)NC(=O)[C@@H](NC(=O)CNC(=O)[C@H](CCC(=O)O)NC(=O)C(C)(C)NC(=O)[C@@H](N)Cc1ccc(O)cc1)[C@@H](C)O)[C@@H](C)O)[C@@H](C)CC)C(=O)N[C@@H](C)C(=O)N[C@@H](CCC(N)=O)C(=O)NC(C)(C)C(=O)N[C@@H](CCC(=O)O)C(=O)N[C@@H](Cc1ccccc1)C(=O)N[C@H](C(=O)N[C@@H](CCCCNC(=O)COCCOCCNC(=O)COCCOCCNC(=O)CC[C@H](NC(=O)CCCCCCCCCCCCC(=O)O)C(=O)O)C(=O)N[C@@](C)(Cc1ccc(O)cc1)C(=O)N[C@@H](CC(C)C)C(=O)N[C@H](C(=O)N[C@@H](CCCCNC(=O)COCCOCCNC(=O)COCCOCCNC(=O)CC[C@H](NC(=O)CCCCCCCCCCCCC(=O)O)C(=O)O)C(=O)NCC(=O)NCC(=O)N1CCC[C@H]1C(=O)N[C@@H](CO)C(=O)N[C@@H](CO)C(=O)NCC(=O)N[C@@H](C)C(=O)N1CCC[C@H]1C(=O)N1CCC[C@H]1C(=O)N1CCC[C@H]1C(=O)N[C@@H](CO)C(N)=O)[C@@H](C)CC)[C@@H](C)CC [Example 219] | 135 | 82.9 | 96.7 | 0.0227 | > 9950 | > 9950 | – | – | 0.376 | – |
